Test results taken from patent publication US20250388567A1, “SELECTIVE G PROTEIN-COUPLED RECEPTOR KINASE 5 INHIBITORS, COMPOSITIONS, AND METHODS OF USE” (Purdue Research Foundation, priority 2022, published 2025).

Assays:
human GRK5 = human GRK5 (Homo sapiens (Human), UniProt P34947); experiment: GRK5 radiometric inhibition assay (tubulin phosphorylation, [γ-32P]-ATP); type: biochemical; conditions: 50 nM GRK, 500 nM tubulin, 5 μM ATP
Description: (§1) Reactions were quenched at 8 min by addition of 5 μL of 4×SDS gel loading dye to the 10 μL reactions. […] Gels were dried, exposed to a storage phosphor screen overnight, and scanned using a Personal Molecular Imager (Bio-Rad). […] Outliers were eliminated automatically at a 1% Q value. Experiments were performed at least three times.
(§2) Standard control compounds are run during each assay to assess consistency across time, experimenters, and subtle changes in assay conditions that are sometimes required to keep compounds soluble and dispersed (e.g., through addition of DDM or 3% DMSO).

bovine GRK2 = bovine GRK2 (Bos taurus (Bovine), UniProt P21146); experiment: GRK2 radiometric inhibition assay (tubulin phosphorylation, [γ-32P]-ATP); type: biochemical; conditions: 50 nM GRK, 500 nM tubulin, 5 μM ATP
Chain of bovine GRK2 (P21146 whole entry): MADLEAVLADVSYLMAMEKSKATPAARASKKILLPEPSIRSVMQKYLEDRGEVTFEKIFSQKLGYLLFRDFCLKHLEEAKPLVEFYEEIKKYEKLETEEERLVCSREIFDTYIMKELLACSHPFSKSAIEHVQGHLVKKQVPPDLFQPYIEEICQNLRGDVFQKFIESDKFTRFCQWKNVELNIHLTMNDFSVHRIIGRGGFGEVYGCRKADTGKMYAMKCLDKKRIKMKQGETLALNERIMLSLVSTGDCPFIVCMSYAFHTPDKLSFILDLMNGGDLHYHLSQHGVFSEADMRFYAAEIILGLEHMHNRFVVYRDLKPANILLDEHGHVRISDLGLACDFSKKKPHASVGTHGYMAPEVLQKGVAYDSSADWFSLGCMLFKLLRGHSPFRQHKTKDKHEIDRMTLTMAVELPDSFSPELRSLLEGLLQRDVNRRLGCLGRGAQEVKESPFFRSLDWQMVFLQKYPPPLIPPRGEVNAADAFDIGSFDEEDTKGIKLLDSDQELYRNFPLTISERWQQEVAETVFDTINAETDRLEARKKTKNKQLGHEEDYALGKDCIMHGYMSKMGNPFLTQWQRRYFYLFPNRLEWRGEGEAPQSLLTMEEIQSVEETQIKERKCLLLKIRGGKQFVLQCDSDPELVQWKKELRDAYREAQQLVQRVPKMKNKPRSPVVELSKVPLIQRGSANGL
Description: as §1, §2

Chain of human GRK5 (P34947 whole entry): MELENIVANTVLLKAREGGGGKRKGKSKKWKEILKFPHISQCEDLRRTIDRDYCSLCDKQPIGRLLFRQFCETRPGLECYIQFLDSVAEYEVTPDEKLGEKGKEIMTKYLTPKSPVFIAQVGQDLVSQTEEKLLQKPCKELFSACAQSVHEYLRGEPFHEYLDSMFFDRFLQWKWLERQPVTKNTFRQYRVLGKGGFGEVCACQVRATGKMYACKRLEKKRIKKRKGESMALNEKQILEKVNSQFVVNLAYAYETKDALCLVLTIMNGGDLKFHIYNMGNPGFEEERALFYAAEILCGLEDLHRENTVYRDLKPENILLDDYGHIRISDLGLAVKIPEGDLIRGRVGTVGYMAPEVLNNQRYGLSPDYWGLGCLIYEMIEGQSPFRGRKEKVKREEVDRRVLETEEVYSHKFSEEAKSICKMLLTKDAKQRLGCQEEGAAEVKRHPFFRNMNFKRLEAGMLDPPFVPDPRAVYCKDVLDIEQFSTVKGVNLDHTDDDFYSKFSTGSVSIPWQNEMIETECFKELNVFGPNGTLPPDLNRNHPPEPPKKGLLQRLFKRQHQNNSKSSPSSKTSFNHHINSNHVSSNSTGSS

| IC50 (human GRK5) | IC50 (bovine GRK2) | SMILES |
| --- | --- | --- |
| 0.001 to 0.1 µM | > 10 µM | Cc1[nH]c(/C=C2\C(=O)Nc3ccc(C(=O)N[C@H](C)c4ccc(F)cc4)cc32)c(C)c1C(=O)NCC1CCCO1 (mixture of isomers) [Compound 35] |
| 0.001 to 0.1 µM | 1 to 10 µM | Cc1[nH]c(/C=C2\C(=O)Nc3ccc(C(=O)N[C@H](C)c4ccccc4)cc32)c(C)c1C(=O)NC1CCOC1 (mixture of isomers) [Compound 39] |
| 0.001 to 0.1 µM | 1 to 10 µM | Cc1[nH]c(/C=C2\C(=O)Nc3ccc(C(=O)N[C@H](C)c4ccccc4)cc32)c(C)c1C(=O)NCC1CCOC1 (mixture of isomers) [Compound 40] |
|  | > 10 µM | Cc1[nH]c(/C=C2\C(=O)Nc3ccc(C(=O)N[C@H](C)c4ccc(F)cc4)cc32)c(C)c1NC(=O)C(O)c1ccccc1 (stereo partly drawn) [Compound 1] |
| 0.101 to 0.999 µM | > 10 µM | COc1cccc2[nH]c(C(O)C(=O)Nc3c(C)[nH]c(/C=C4\C(=O)Nc5ccc(C(=O)N[C@H](C)c6ccc(F)cc6)cc54)c3C)cc12 (stereo partly drawn) [Compound 4] |
| 0.101 to 0.999 µM | > 10 µM | Cc1[nH]c(/C=C2\C(=O)Nc3ccc(C(=O)N[C@H](C)c4ccccc4)cc32)c(C)c1C(=O)N[C@@H]1c2ccccc2C[C@@H]1O [Compound 5] |
| 0.101 to 0.999 µM | > 10 µM | Cc1[nH]c(/C=C2\C(=O)Nc3ccc(C(=O)N[C@H](C)c4ccccc4)cc32)c(C)c1C(=O)N[C@@H]1c2ccccc2C[C@H]1O [Compound 6] |
| 0.101 to 0.999 µM | > 10 µM | Cc1[nH]c(/C=C2\C(=O)Nc3ccc(C(=O)N[C@H](C)c4ccccc4)cc32)c(C)c1C(=O)N[C@H]1c2ccccc2C[C@@H]1O [Compound 7] |
| 0.101 to 0.999 µM | > 10 µM | Cc1[nH]c(/C=C2\C(=O)Nc3ccc(C(=O)N[C@H](C)c4ccccc4)cc32)c(C)c1C(=O)N[C@H]1c2ccccc2C[C@H]1O [Compound 8] |
| > 10 µM | > 10 µM | Cc1[nH]c(/C=C2\C(=O)Nc3ccc(C(=O)N[C@@H]4CCc5ccccc54)cc32)c(C)c1NC(=O)C(=O)c1ccco1 [Compound 9] |
| 0.101 to 0.999 µM | > 10 µM | Cc1[nH]c(/C=C2\C(=O)Nc3ccc(C(=O)N[C@@H]4CCc5ccccc54)cc32)c(C)c1NC(=O)C(O)c1ccco1 (stereo partly drawn) [Compound 10] |
| 1 to 10 µM | > 10 µM | Cc1[nH]c(/C=C2\C(=O)Nc3ccc(C(=O)N[C@H]4CCc5ccccc54)cc32)c(C)c1NC(=O)C(=O)c1ccco1 [Compound 11] |
| 1 to 10 µM | > 10 µM | Cc1[nH]c(/C=C2\C(=O)Nc3ccc(C(=O)N[C@H]4CCc5ccccc54)cc32)c(C)c1NC(=O)C(O)c1ccco1 (stereo partly drawn) [Compound 12] |
| 0.101 to 0.999 µM | > 10 µM | Cc1[nH]c(CC2C(=O)Nc3ccc(C(=O)N[C@H](C)c4ccc(F)cc4)cc32)c(C)c1NC(=O)[C@H](O)c1ccco1 (stereo partly drawn) [Compound 13] |
| 1 to 10 µM | > 10 µM | Cc1[nH]c(/C=C2\C(=O)Nc3ccc(C(=O)N[C@H](C)c4ccccc4)cc32)c(C)c1C(=O)N[C@@H]1CCc2ccccc21 [Compound 16] |
| > 10 µM | > 10 µM | Cc1[nH]c(/C=C2\C(=O)Nc3ccc(C(=O)N[C@H](C)c4ccccc4)cc32)c(C)c1C(=O)N[C@H]1CCc2ccccc21 [Compound 17] |
| 0.101 to 0.999 µM | > 10 µM | Cc1[nH]c(/C=C2\C(=O)Nc3ccc(C(=O)N[C@H](C)c4ccccc4)cc32)c(C)c1C(O)C#N (stereo partly drawn) [Compound 18] |
| 0.101 to 0.999 µM | > 10 µM | Cc1[nH]c(/C=C2\C(=O)Nc3ccc(C(=O)N[C@H](C)c4ccc(F)cc4)cc32)c(C)c1C(=O)N[C@@H]1c2ccccc2C[C@H]1O [Compound 19] |
| 0.101 to 0.999 µM | > 10 µM | Cc1[nH]c(/C=C2\C(=O)Nc3ccc(C(=O)N[C@H](C)c4ccccc4)cc32)c(C)c1C(=O)N[C@H]1C(=O)Cc2ccccc21 [Compound 20] |
| 0.001 to 0.1 µM | 1 to 10 µM | Cc1[nH]c(/C=C2\C(=O)Nc3ccc(C(=O)N[C@H](C)c4ccc(F)cc4)cc32)c(C)c1NC(=O)C(O)c1ccoc1 (stereo partly drawn) [Compound 22] |

| IC50 (human GRK5) | IC50 (bovine GRK2) | SMILES |
| --- | --- | --- |
| > 10 µM | > 10 µM | COCO[C@@H]1Cc2ccccc2[C@H]1NC(=O)c1c(C)[nH]c(/C=C2\C(=O)Nc3ccc(C(=O)N[C@H](C)c4ccccc4)cc32)c1C [Compound 23] |
| 0.101 to 0.999 µM | > 10 µM | Cc1[nH]c(/C=C2\C(=O)Nc3ccc(C(=O)N[C@H](C)c4ccccc4)cc32)c(C)c1C(=O)N[C@@H]1c2ccccc2CC[C@@H]1O [Compound 24] |
| 0.101 to 0.999 µM | > 10 µM | Cc1[nH]c(/C=C2\C(=O)Nc3ccc(C(=O)N[C@H](C)c4ccccc4)cc32)c(C)c1C(=O)N[C@H]1c2ccccc2CC[C@H]1O [Compound 25] |
| 0.101 to 0.999 µM | > 10 µM | Cc1[nH]c(/C=C2\C(=O)Nc3ccc(C(=O)N[C@H](C)c4ccccc4)cc32)c(C)c1C(=O)NC1c2ccccc2OCC1O (stereo partly drawn) [Compound 26] |
| 0.001 to 0.1 µM | 1 to 10 µM | Cc1[nH]c(/C=C2\C(=O)Nc3ccc(C(=O)N[C@H](C)c4ccccc4)cc32)c(C)c1C(=O)NCC(O)c1ccco1 (stereo partly drawn) [Compound 27] |
| 0.101 to 0.999 µM | > 10 µM | COc1cccc(C(O)C(=O)Nc2c(C)[nH]c(/C=C3\C(=O)Nc4ccc(C(=O)N[C@H](C)c5ccc(F)cc5)cc43)c2C)c1 (stereo partly drawn) [Compound 28] |
| 0.001 to 0.1 µM | 1 to 10 µM | Cc1[nH]c(/C=C2\C(=O)Nc3ccc(C(=O)N[C@H](C)c4ccccc4)cc32)c(C)c1C(=O)NCc1ccco1 [Compound 29] |
| 0.001 to 0.1 µM | 1 to 10 µM | Cc1[nH]c(/C=C2\C(=O)Nc3ccc(C(=O)N[C@H](C)c4ccccc4)cc32)c(C)c1C(=O)NCC1CCCO1 (stereo partly drawn) [Compound 30] |
| 0.001 to 0.1 µM | 1 to 10 µM | Cc1[nH]c(/C=C2\C(=O)Nc3ccc(C(=O)N[C@H](C)c4ccccc4)cc32)c(C)c1C(=O)NC(C)c1ccco1 (stereo partly drawn) [Compound 31] |
| 0.001 to 0.1 µM | 1 to 10 µM | Cc1[nH]c(/C=C2\C(=O)Nc3ccc(C(=O)N[C@H](C)c4ccccc4)cc32)c(C)c1C(=O)NCC(O)c1ccoc1 (stereo partly drawn) [Compound 32] |
| 0.101 to 0.999 µM | 1 to 10 µM | Cc1[nH]c(/C=C2\C(=O)Nc3ccc(C(=O)N[C@H](C)c4ccccc4)cc32)c(C)c1C(=O)Nc1nc2ccccc2[nH]1 [Compound 33] |
| 0.001 to 0.1 µM | 1 to 10 µM | Cc1[nH]c(/C=C2\C(=O)Nc3ccc(C(=O)N[C@H](C)c4ccccc4)cc32)c(C)c1C(=O)N[C@H]1Cc2ccccc2[C@H]1O [Compound 34] |
| 0.001 to 0.1 µM | > 10 µM | Cc1[nH]c(/C=C2\C(=O)Nc3ccc(C(=O)N[C@H](C)c4ccccc4)cc32)c(C)c1C(=O)NC[C@H]1CCCO1 [Compound 36] |
| 0.001 to 0.1 µM | 1 to 10 µM | Cc1[nH]c(/C=C2\C(=O)Nc3ccc(C(=O)N[C@H](C)c4ccccc4)cc32)c(C)c1C(=O)NC[C@@H]1CCCO1 [Compound 37] |
| 0.001 to 0.1 µM | > 10 µM | Cc1[nH]c(/C=C2\C(=O)Nc3ccc(C(=O)N[C@H](C)c4ccccc4)cc32)c(C)c1C(=O)NCC1CCCCO1 (stereo partly drawn) [Compound 38] |
| 0.001 to 0.1 µM | > 10 µM | Cc1[nH]c(/C=C2\C(=O)Nc3ccc(C(=O)N[C@H](C)c4ccccc4)cc32)c(C)c1C(=O)NCC1CC(=O)c2ccccc2O1 (stereo partly drawn) [Compound 41] |
| 0.101 to 0.999 µM | > 10 µM | Cc1[nH]c(/C=C2\C(=O)Nc3ccc(C(=O)N[C@H](C)c4ccccc4)cc32)c(C)c1C(=O)NC1CCS(=O)(=O)CC1 [Compound 42] |
| 1 to 10 µM | > 10 µM | Cc1[nH]c(/C=C2\C(=O)Nc3ccc(C(=O)N[C@H](C)c4ccccc4)cc32)c(C)c1C(=O)NC1CCOCC1 [Compound 43] |
| 0.001 to 0.1 µM | > 10 µM | Cc1[nH]c(/C=C2\C(=O)Nc3ccc(C(=O)N[C@H](C)c4ccccc4)cc32)c(C)c1C(=O)NCC(O)C1CCOC1 (stereo partly drawn) [Compound 44] |

| SMILES | IC50 (human GRK5) | IC50 (bovine GRK2) |
| --- | --- | --- |
| Cc1[nH]c(/C=C2\C(=O)Nc3ccc(C(=O)N[C@H](C)c4ccc(F)cc4)cc32)c(C)c1NC(=O)c1ccoc1 [Compound 21] | 0.001 to 0.1 µM |  |
